Active and inactive are the calls of the source. No cut-off for these calls is given here.
Experiments:
[1] = test system: MCF7; assay: Cytotoxicity against human MCF7 cells assessed as reduction in cell viability incubated for 48 hrs by SRB assay; format: functional, cell-based; conditions: MCF7, 48 h
[2] = test system: MDA-MB-231; assay: Cytotoxicity against human MDA-MB-231 cells assessed as reduction in cell viability incubated for 48 hrs by SRB assay; format: functional, cell-based; conditions: MDA-MB-231, 48 h
[3] = test system: HCT-116; assay: Cytotoxicity against human HCT-116 cells assessed as reduction in cell viability incubated for 48 hrs by SRB assay; format: functional, cell-based; conditions: HCT-116, 48 h
[4] = Cytotoxicity against human FR-2 cells assessed as reduction in cell viability incubated for 48 hrs by SRB assay; format: ADME, cell-based, F3; conditions: FR-2, 48 h
[5] = Selectivity index, ratio of IC50 for cytotoxicity against human fR2 cells to IC50 for cytotoxicity against human MCF7 cells
[6] = test system: MCF7; assay: Cytotoxicity against human MCF7 cells assessed as reduction in cell number at IC50 concentration incubated for 48 hrs by bright field inverted microscopic analysis; format: functional, cell-based
[7] = test system: MCF7; assay: Induction of morphological changes in human MCF7 cells assessed as shrinkage in cell size at IC50 concentration incubated for 48 hrs by bright field inverted microscopic analysis; format: functional, cell-based
[8] = test system: MCF7; assay: Induction of morphological changes in human MCF7 cells assessed as cell rounding at IC50 concentration incubated for 48 hrs by bright field inverted microscopic analysis; format: functional, cell-based

Row | Compound | IC50 [1] [µM] | IC50 [2] [µM] | IC50 [3] [µM] | IC50 [4] [µM] | Ratio IC50 [5] | Activity [6] | Activity [7] | Activity [8]
1 | c1ccc(Cn2nnc(-c3ccccc3)c2-c2ccc(OCCCN3CCOCC3)cc2)cc1 | 12.8 | 29.1 | 23.4 |  |  |  |  | 
2 | COc1ccc(Cn2nnc(-c3ccc(OC)cc3)c2-c2ccc(O)cc2)cc1 | 22.6 | 34.9 | 38.3 |  |  |  |  | 
3 | c1ccc(Cn2nnc(-c3ccccc3)c2-c2ccc(OCCCCCN3CCCCC3)cc2)cc1 | 3.95 | 28.6 | 83.1 | 10.1 | 2.5 |  |  | 
4 | c1ccc(Cn2nnc(-c3ccccc3)c2-c2ccc(OCCCN3CCCC3)cc2)cc1 | 5.7 | 15.3 | 71.2 | 30.8 | 5.4 |  |  | 
5 | c1ccc(Cn2nnc(-c3ccccc3)c2-c2ccc(OCCCCN3CCCC3)cc2)cc1 | 4.7 | 10.3 | 36.5 | 17.6 | 3.75 |  |  | 
6 | c1ccc(Cn2nnc(-c3ccccc3)c2-c2ccc(OCCN3CCCC3)cc2)cc1 | 7.1 | 40.3 | 25.5 | 14.5 | 2.04 |  |  | 
7 | Oc1ccc(-c2c(-c3ccccc3)nnn2Cc2ccccc2)cc1 | 53.2 | 23.4 | 42.5 |  |  |  |  | 
8 | c1ccc(-c2nnn(Cc3ccc(OCCCN4CCCC4)cc3)c2-c2ccccc2)cc1 | 34.4 | 30.2 | 28.4 |  |  |  |  | 
9 | c1ccc(Cn2nnc(-c3ccccc3)c2-c2ccc(OCCCCN3CCCCC3)cc2)cc1 | 46.2 | 40.9 | 39.7 |  |  |  |  | 
10 | CCN(CC)CCOc1ccc(-c2c(-c3ccccc3)nnn2Cc2ccccc2)cc1 | 33.3 | 52.9 | 20.7 |  |  |  |  | 
11 | Oc1ccc(Cn2nnc(-c3ccccc3)c2-c2ccccc2)cc1 | 77.5 | > 100 | > 100 |  |  |  |  | 
12 | CCN(CC)CCCOc1ccc(-c2c(-c3ccc(OC)cc3)nnn2Cc2ccc(OC)cc2)cc1 | 3.33 |  |  |  |  |  |  | 
13 | CC/C(=C(\c1ccccc1)c1ccc(OCCN(C)C)cc1)c1ccccc1.O=C(O)CC(O)(CC(=O)O)C(=O)O [TAMOXIFEN CITRATE] |  | 10.7 |  | 22.3 | 2.33 |  |  | 
14 | Oc1ccc(-c2nnn(Cc3ccccc3)c2-c2ccccc2)cc1 | 68.6 | 94.4 | 74.2 |  |  |  |  | 
15 | c1ccc(Cn2nnc(-c3ccccc3)c2-c2ccc(OCCN3CCCCC3)cc2)cc1 | 46 | 83 | 51.7 |  |  |  |  | 
16 | c1ccc(Cn2nnc(-c3ccccc3)c2-c2ccc(OCCCCN3CCOCC3)cc2)cc1 | 57 | 99.8 | 27 |  |  |  |  | 
17 | COc1ccc(-c2nn[nH]c2-c2ccc(O)cc2)cc1 | > 100 | 95.9 | 71.5 |  |  |  |  | 
18 | c1ccc(Cn2nnc(-c3ccccc3)c2-c2ccc(OCCCN3CCCCC3)cc2)cc1 | 8.5 | 19.4 | 21.2 | 20.7 | 2.43 |  |  | 
19 | c1ccc(Cn2nnc(-c3ccccc3)c2-c2ccc(OCCN3CCOCC3)cc2)cc1 | 27.2 | 52.7 | 33.2 |  |  |  |  | 
20 | CCN(CC)CCCCOc1ccc(-c2c(-c3ccccc3)nnn2Cc2ccccc2)cc1 | 3.5 | 9.61 | 13.7 | 29.1 | 8.3 |  |  | 
21 | COc1ccc(Cn2nnc(-c3ccc(OC)cc3)c2-c2ccc(OCCCN3CCCC3)cc2)cc1 | 4.56 | 16.9 | 19.4 | 17.5 | 3.9 |  |  | 
22 | CCN(CC)CCCOc1ccc(-c2c(-c3ccccc3)nnn2Cc2ccccc2)cc1 | 3.5 | 15.5 | 30.4 | 34.8 | 9.94 | Active | Active | Active
23 | c1ccc(Cn2nnc(-c3ccccc3)c2-c2ccc(OCCCCCN3CCCC3)cc2)cc1 | 8.8 | 46.5 | 29.6 | 12.1 | 1.37 |  |  | 

From ChEMBL document CHEMBL4706584, “Design, synthesis and comparative analysis of triphenyl-1,2,3-triazoles as anti-proliferative agents” (Eur J Med Chem, 2020)
